According to the supplement of paper PMC10331698:
± gives the standard deviation of the averaged measurements.

What was measured:
Experiment in all cases: level (log10 ratio to DMSO vehicle control); higher = higher biomarker level / cell amount than vehicle control
Settings in all cases: in DMSO
[1] = compound: FC(F)(F)C(F)(F)C(F)(F)C(F)(F)C(F)(F)C(F)(F)I [Perfluoro-1-iodohexane]
Description: (§1)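 BioMAP Diversity Plus panel of 12 human primary cell co-culture systems (3C, 4H, LPS, SAg, BT, BF4T, BE3C, CASM3C, HDF3CGF, KF3CT, MyoF, Mphg). Compounds were added 1 h before stimulation and left for 24 h (MyoF 48 h; BT 72 h for soluble read-outs or 6 d for IgG). Biomarkers were read by ELISA, cytotoxicity by SRB, PBMC viability and proliferation by Alamar Blue. Each well value was divided by the mean of 8 DMSO control wells on the same plate and log10 transformed; duplicate blinded samples were tested at 4 concentrations.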

[2] = compound: O=C(O)C(F)(F)C(F)(F)C(F)(F)F [Perfluorobutanoic acid]
Description: as §1

[3] = compound: O=C(O)C(F)(F)C(F)(F)F [Perfluoropropanoic acid]
Description: as §1

[4] = compound: O=C(O)C(F)(F)C(F)(F)OC(F)(F)F [Perfluoro-3-methoxypropanoic acid]
Description: as §1

[5] = compound: O=C(O)C(F)(F)OC(F)(F)C(F)(F)OC(F)(F)C(=O)O [Perfluoro-3,6-dioxaoctane-1,8-dioic acid]
Description: as §1

[6] = compound: OCC(F)(F)OC(F)(F)C(F)(F)OC(F)(F)CO [1H,1H,8H,8H-Perfluoro-3,6-dioxaoctane-1,8-diol]
Description: as §1

[7] = compound: OCCC(F)(F)C(F)(F)C(F)(F)C(F)(F)C(F)(F)C(F)(F)F [6:2 Fluorotelomer alcohol]
Description: as §1

KF3CT:IL-1alpha
level (log10) ([1]; 6700 nM): 0.008 ± 0.017 | level (log10) ([1]; 20000 nM): 0.005 ± 0.017 | level (log10) ([1]; 60000 nM): -0.014 ± 0.017 | level (log10) ([2]; 6700 nM): -0.0085 ± 0.012 | level (log10) ([2]; 20000 nM): 0.006 ± 0.062 | level (log10) ([2]; 60000 nM): 0.019 ± 0.058 | level (log10) ([3]; 6700 nM): -0.013 ± 0.05 | level (log10) ([3]; 20000 nM): -0.0035 ± 0.052 | level (log10) ([3]; 60000 nM): -0.04 ± 0.038 | level (log10) ([4]; 6700 nM): 0.0455 ± 0.005 | level (log10) ([4]; 20000 nM): 0.01 ± 0.0042 | level (log10) ([4]; 60000 nM): 0.0225 ± 0.00071 | level (log10) ([5]; 6700 nM): 0.0075 ± 0.00071 | level (log10) ([5]; 20000 nM): -0.0065 ± 0.013 | level (log10) ([5]; 60000 nM): 0.02 ± 0.013 | level (log10) ([6]; 6700 nM): -0.029 ± 0.045 | level (log10) ([6]; 20000 nM): -0.013 ± 0.014 | level (log10) ([6]; 60000 nM): 0.013 ± 0.023 | level (log10) ([7]; 6700 nM): 0.003 ± 0.041 | level (log10) ([7]; 20000 nM): -0.0085 ± 0.011

lMphg:CD69
level (log10) ([1]; 6700 nM): -0.031 ± 0.048 | level (log10) ([1]; 20000 nM): -0.0425 ± 0.06 | level (log10) ([1]; 60000 nM): -0.031 ± 0.045 | level (log10) ([2]; 6700 nM): 0.0505 ± 0.066 | level (log10) ([2]; 20000 nM): 0.0455 ± 0.0021 | level (log10) ([2]; 60000 nM): 0.087 ± 0.1 | level (log10) ([3]; 6700 nM): 0.0105 ± 0.059 | level (log10) ([3]; 20000 nM): -0.022 ± 0.025 | level (log10) ([3]; 60000 nM): 0.0045 ± 0.029 | level (log10) ([4]; 6700 nM): -0.0495 ± 0.043 | level (log10) ([4]; 20000 nM): -0.0005 ± 0.026 | level (log10) ([4]; 60000 nM): 0.017 ± 0.04 | level (log10) ([5]; 6700 nM): -0.0565 ± 0.015 | level (log10) ([5]; 20000 nM): 0 ± 0.054 | level (log10) ([5]; 60000 nM): -0.024 ± 0.098 | level (log10) ([6]; 6700 nM): -0.0305 ± 0.0064 | level (log10) ([6]; 20000 nM): -0.041 ± 0.025 | level (log10) ([6]; 60000 nM): -0.0145 ± 0.13 | level (log10) ([7]; 6700 nM): -0.0205 ± 0.0078 | level (log10) ([7]; 20000 nM): -0.017 ± 0.0028

CASM3C:LDLR
level (log10) ([1]; 6700 nM): -0.008 ± 0.0057 | level (log10) ([1]; 20000 nM): 0.0155 ± 0.016 | level (log10) ([1]; 60000 nM): 0.005 ± 0.028 | level (log10) ([2]; 6700 nM): -0.013 ± 0.028 | level (log10) ([2]; 20000 nM): -0.018 ± 0.02 | level (log10) ([2]; 60000 nM): 0.0095 ± 0.015 | level (log10) ([3]; 6700 nM): -0.0845 ± 0.07 | level (log10) ([3]; 20000 nM): -0.036 ± 0.054 | level (log10) ([3]; 60000 nM): -0.022 ± 0.073 | level (log10) ([4]; 6700 nM): 0.0105 ± 0.016 | level (log10) ([4]; 20000 nM): 0.01 ± 0.028 | level (log10) ([4]; 60000 nM): 0.013 ± 0.013 | level (log10) ([5]; 6700 nM): 0.015 ± 0.034 | level (log10) ([5]; 20000 nM): -0.0115 ± 0.0035 | level (log10) ([5]; 60000 nM): 0.0155 ± 0.015 | level (log10) ([6]; 6700 nM): 0.005 ± 0.0014 | level (log10) ([6]; 20000 nM): 0.0055 ± 0.019 | level (log10) ([6]; 60000 nM): 0.0235 ± 0.039 | level (log10) ([7]; 6700 nM): 0.031 ± 0.011 | level (log10) ([7]; 20000 nM): 0.023 ± 0.0028

BE3C:PAI-I
level (log10) ([1]; 6700 nM): -0.0245 ± 0.04 | level (log10) ([1]; 20000 nM): -0.0045 ± 0.025 | level (log10) ([1]; 60000 nM): 0.006 ± 0.037 | level (log10) ([2]; 6700 nM): -0.011 ± 0.011 | level (log10) ([2]; 20000 nM): -0.025 ± 0.023 | level (log10) ([2]; 60000 nM): -0.0085 ± 0.0035 | level (log10) ([3]; 6700 nM): -0.029 ± 0.045 | level (log10) ([3]; 20000 nM): -0.0065 ± 0.057 | level (log10) ([3]; 60000 nM): 0.017 ± 0.052 | level (log10) ([4]; 6700 nM): -0.012 ± 0.0057 | level (log10) ([4]; 20000 nM): -0.009 ± 0.018 | level (log10) ([4]; 60000 nM): 0.012 ± 0.0014 | level (log10) ([5]; 6700 nM): -0.013 ± 0.0042 | level (log10) ([5]; 20000 nM): -0.0105 ± 0.019 | level (log10) ([5]; 60000 nM): 0.0065 ± 0.022 | level (log10) ([6]; 6700 nM): -0.0105 ± 0.005 | level (log10) ([6]; 20000 nM): -0.0235 ± 0.0092 | level (log10) ([6]; 60000 nM): 0.01 ± 0.021 | level (log10) ([7]; 6700 nM): -0.0205 ± 0.03 | level (log10) ([7]; 20000 nM): -0.025 ± 0.048

lMphg:SRB
level (log10) ([1]; 6700 nM): -0.0055 ± 0.00071 | level (log10) ([1]; 20000 nM): -0.0025 ± 0.0035 | level (log10) ([1]; 60000 nM): 0.0035 ± 0.0078 | level (log10) ([2]; 6700 nM): -0.012 ± 0.017 | level (log10) ([2]; 20000 nM): -0.0235 ± 0.037 | level (log10) ([2]; 60000 nM): 0.002 ± 0.031 | level (log10) ([3]; 6700 nM): -0.0065 ± 0.005 | level (log10) ([3]; 20000 nM): -0.0125 ± 0.0021 | level (log10) ([3]; 60000 nM): -0.011 ± 0.016 | level (log10) ([4]; 6700 nM): -0.006 ± 0.0014 | level (log10) ([4]; 20000 nM): -0.0185 ± 0.005 | level (log10) ([4]; 60000 nM): 0 ± 0.0028 | level (log10) ([5]; 6700 nM): -0.0035 ± 0.013 | level (log10) ([5]; 20000 nM): -0.009 ± 0.014 | level (log10) ([5]; 60000 nM): -0.0035 ± 0.015 | level (log10) ([6]; 6700 nM): -0.028 ± 0.021 | level (log10) ([6]; 20000 nM): 0.015 | level (log10) ([6]; 60000 nM): -0.0375 ± 0.0021 | level (log10) ([7]; 6700 nM): -0.014 ± 0.017 | level (log10) ([7]; 20000 nM): -0.0125 ± 0.0021

lMphg:IL-1alpha
level (log10) ([1]; 6700 nM): 0.008 ± 0.0057 | level (log10) ([1]; 20000 nM): 0.0525 ± 0.019 | level (log10) ([1]; 60000 nM): 0.027 ± 0.011 | level (log10) ([2]; 6700 nM): 0.002 ± 0.041 | level (log10) ([2]; 20000 nM): 0.022 ± 0.079 | level (log10) ([2]; 60000 nM): 0.0365 ± 0.076 | level (log10) ([3]; 6700 nM): -0.0235 ± 0.00071 | level (log10) ([3]; 20000 nM): -0.019 ± 0.038 | level (log10) ([3]; 60000 nM): 0.035 ± 0.027 | level (log10) ([4]; 6700 nM): -0.008 ± 0.03 | level (log10) ([4]; 20000 nM): -0.0055 ± 0.033 | level (log10) ([4]; 60000 nM): 0.0115 ± 0.005 | level (log10) ([5]; 6700 nM): 0.009 ± 0.018 | level (log10) ([5]; 20000 nM): 0.001 | level (log10) ([5]; 60000 nM): 0.0015 ± 0.0035 | level (log10) ([6]; 6700 nM): -0.027 ± 0.09 | level (log10) ([6]; 20000 nM): -0.036 ± 0.035 | level (log10) ([6]; 60000 nM): -0.021 ± 0.018 | level (log10) ([7]; 6700 nM): 0.0025 ± 0.022 | level (log10) ([7]; 20000 nM): 0.019 ± 0.0085

3C:CD141/Thrombomodulin
level (log10) ([1]; 6700 nM): -0.025 ± 0.013 | level (log10) ([1]; 20000 nM): -0.023 ± 0.014 | level (log10) ([1]; 60000 nM): -0.0015 ± 0.005 | level (log10) ([2]; 6700 nM): -0.0095 ± 0.026 | level (log10) ([2]; 20000 nM): -0.0105 ± 0.026 | level (log10) ([2]; 60000 nM): -0.0105 ± 0.04 | level (log10) ([3]; 6700 nM): -0.016 ± 0.031 | level (log10) ([3]; 20000 nM): 0.011 ± 0.021 | level (log10) ([3]; 60000 nM): 0.0155 ± 0.0035 | level (log10) ([4]; 6700 nM): 0.0005 ± 0.087 | level (log10) ([4]; 20000 nM): -0.0245 ± 0.036 | level (log10) ([4]; 60000 nM): -0.0215 ± 0.023 | level (log10) ([5]; 6700 nM): -0.0265 ± 0.036 | level (log10) ([5]; 20000 nM): -0.0065 ± 0.023 | level (log10) ([5]; 60000 nM): 0.0095 ± 0.028 | level (log10) ([6]; 6700 nM): -0.003 ± 0.013 | level (log10) ([6]; 20000 nM): -0.0075 ± 0.015 | level (log10) ([6]; 60000 nM): 0.01 ± 0.0085 | level (log10) ([7]; 6700 nM): -0.019 ± 0.037 | level (log10) ([7]; 20000 nM): -0.0445 ± 0.021
